# US20090023718A1 (Aton Pharma, Inc., priority 2003, published 2009)
# Biological target: T1, histone deacetylase, subtype 1 (HDAC1) (Homo sapiens, UniProt Q13547)
# T1 construct: Flag; made in house
# Assay: HDAC1-Flag assay (in vitro fluorescent deacetylation assay)
# Format: biochemical
# Conditions: Table 1, compounds of formula II; epitope-tagged human HDAC1 complex, substrate at Km; mean ± spread (N); read-out: HDAC Inhibition (IC50) nm
# Experimental: Novel compounds were tested for their ability to inhibit histone deacetylase, subtype 1 (HDAC1) using an in vitro deacetylation assay. The enzyme source for this assay was an epitope-tagged human HDAC1 complex immuno-purified from stably expressing mammalian cells. The substrate consisted of a commercial product containing an acetylated lysine side chain (BIOMOL Research Laboratories, Inc., Plymouth Meeting, Pa.). Upon deacetylation of the substrate by incubation with the purified HDAC1 complex, a fluorophore is produced that is directly proportional to the level of deacetylation.
# T1 sequence (Q13547 whole entry): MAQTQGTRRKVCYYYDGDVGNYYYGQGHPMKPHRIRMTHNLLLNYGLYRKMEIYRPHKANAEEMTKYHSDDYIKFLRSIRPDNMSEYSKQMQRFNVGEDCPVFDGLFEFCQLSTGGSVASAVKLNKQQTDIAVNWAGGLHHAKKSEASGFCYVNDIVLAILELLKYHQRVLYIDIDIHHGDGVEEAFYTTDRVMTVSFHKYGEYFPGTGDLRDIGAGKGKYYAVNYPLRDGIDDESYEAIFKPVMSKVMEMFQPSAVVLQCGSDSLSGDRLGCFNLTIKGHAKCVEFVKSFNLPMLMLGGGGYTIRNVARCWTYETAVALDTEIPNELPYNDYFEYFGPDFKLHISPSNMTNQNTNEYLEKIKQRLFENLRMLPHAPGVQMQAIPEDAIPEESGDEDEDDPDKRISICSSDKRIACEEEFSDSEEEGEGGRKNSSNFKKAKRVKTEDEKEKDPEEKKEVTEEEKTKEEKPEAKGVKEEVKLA
row,Compound,IC50
1,"O=C(CCCCCC(=O)N(CC(=O)NCc1ccccc1)CC(=O)Nc1ccccc1)NO [Compound 10, Heptanedioic acid (benzylcarbamoyl-methyl)-phenylcarbamoylmethyl-amide hydroxyamide]",27.5 ± 10.6 nM
2,"O=C(CCCCCC(=O)N(CC(=O)Nc1ccc2c(c1)Cc1ccccc1-2)CC(=O)Nc1ccc2c(c1)Cc1ccccc1-2)NO [Compound 31, Heptanedioic acid bis-[(9H-fluoren-2-ylcarbamoyl)-methyl]-amide hydroxyamide]",59 ± 18.3 nM
3,"O=C(CCCCCC(=O)N(CC(=O)Nc1ccc2[nH]ncc2c1)CC(=O)Nc1ccc2[nH]ncc2c1)NO [Compound 1, Heptanedioic acid bis-[(1H-indazol-5-ylcarbamoyl)-methyl]-amide hydroxyamide]",1 nM
4,"O=C(CCCCCCC(=O)N(CC(=O)Nc1ccc2ncccc2c1)CC(=O)Nc1ccc2ncccc2c1)NO [Compound 17, Octanedioic acid bis-(quinolin-6-ylcarbamoylmethyl)-amide hydroxyamide]",102 ± 33.2 nM
5,"O=C(CCCCCC(=O)N(CC(=O)Nc1ccc(N2CCOCC2)cc1)CC(=O)Nc1ccc(N2CCOCC2)cc1)NO [Compound 27, Heptanedioic acid bis-[(4-morpholin-4-yl-phenylcarbamoyl)-methyl]-amide hydroxyamide]",40 ± 8.4 nM
6,"O=C(CCCCCC(=O)N(CC(=O)Nc1ccc2ncccc2c1)CC(=O)Nc1ccc2ncccc2c1)NO [Compound 2, Heptanedioic acid bis-(quinolin-ylcarbamoylmethyl)-amide hydroxyamide]",5.5 ± 0.7 nM
7,"O=C(CCCCCC(=O)N(CC(=O)NC1CCCCC1)CC(=O)NC1CCCCC1)NO [Compound 14, Heptanedioic acid bis-cyclohexylcarbamoylmethyl-amide hydroxyamide]",76 ± 14.1 nM
8,"O=C(CCCCCC(=O)N(CC(=O)Nc1ccc2c(c1)OCCO2)CC(=O)Nc1ccc2c(c1)OCCO2)NO [Compound 5, Heptanedioic acid bis-[(2,3-dihydro-benzo[1,4]dioxin-6-ylcarbamoyl)-methyl]-amide hydroxyamide]",19 nM
9,"O=C(CCCCCC(=O)N(CC(=O)Nc1cccc(Oc2ccccc2)c1)CC(=O)Nc1cccc(Oc2ccccc2)c1)NO [Compound 30, Heptanedioic acid bis-[(3-phenoxy-phenylcarbamoyl)-methyl]-amide hydroxyamide]",137 ± 18.3 nM
10,"O=C(CCCCCC(=O)N(CC(=O)Nc1cccc(OCc2ccccc2)c1)CC(=O)Nc1cccc(OCc2ccccc2)c1)NO [Compound 18, Heptanedioic acid bis-[(3-benzyloxy-phenylcarbamoyl)-methyl]-amide hydroxyamide]",159 ± 159 nM
11,Hexanedioic acid bis-(quinolin-8-ylcarbamoylmethyl)-amide hydroxyamide [Compound 15],82 ± 9.8 nM
12,"O=C(CCCCCCC(=O)N(CC(=O)NCc1ccccc1)CC(=O)NCc1ccccc1)NO [Compound 20, Octanedioic acid bis-(benzylcarbamoyl-methyl)-amide hydroxyamide]",247 ± 99.9 nM
13,"Cc1ccc(S(=O)(=O)Nc2ccc(NC(=O)CN(CC(=O)Nc3ccc(NS(=O)(=O)c4ccc(C)cc4)cc3)C(=O)CCCCCC(=O)NO)cc2)cc1 [Compound 28, Heptanedioic acid bis{[4-(toluene-4-sulfonylamino)-phenylcarbamoyl]-methyl}-amide hydroxyamide]",33 ± 12.7 nM

# Same assay, conditions: Table 2, compounds of formula III; epitope-tagged human HDAC1 complex, substrate at Km; mean ± spread (N); read-out: HDAC Inhibition (IC50) nm
row,Compound,IC50
1,"O=C(CCCCCN(CC(=O)N1CCOCC1)CC(=O)N1CCOCC1)NO [Compound 57, 6-[Bis-(2-morpholin-4-yl-2-oxo-ethyl)-amino]-hexanoic acid hydroxyamide]",2280 ± 889 nM
2,"O=C(CCCCCCCN(CC(=O)Nc1ccccc1)CC(=O)Nc1ccccc1)NO [Compound 43, 8-(Bis-phenylcarbamoylmethyl-amino)-octanoic acid hydroxyamide]",86.5 ± 26.1 nM
3,"O=C(CCCCN(CC(=O)NCCc1ccccc1)CC(=O)NCCc1ccccc1)NO [Compound 54, 5-[Bis-(phenethylcarbamoyl-methyl)-amino]-pentanoic acid hydroxyamide]",886 ± 20.5 nM
4,"O=C(CCCCN(CC(=O)Nc1ccccc1)CC(=O)Nc1ccccc1)NO [Compound 44, 5-(Bis-phenylcarbamoylmethyl-amino)-pentanoic acid hydroxyamide]",133 ± 59.3 nM
5,"O=C(CCCCN(CC(=O)NCc1ccccc1)CC(=O)NCc1ccccc1)NO [Compound 55, 5-[Bis-(benzylcarbamoyl-methyl)-amino]-pentanoic acid hydroxyamide]",907 ± 60.8 nM
6,"O=C(CCCCCCCN(CC(=O)NCCc1ccccc1)CC(=O)NCCc1ccccc1)NO [Compound 49, 8-[Bis-(phenethylcarbamoyl-methyl)-amino]-octanoic acid hydroxyamide]",191 ± 20.5 nM
7,"CC(C)CNC(=O)CN(CCCCCC(=O)NO)CC(=O)NCC(C)C [Compound 51, 6-[Bis-(isobutylcarbamoyl-methyl)-amino]-hexanoic acid hydroxyamide]",288 ± 53 nM
8,"O=C(CCCCCN(CC(=O)NCC1CCCCC1)CC(=O)NCC1CCCCC1)NO [Compound 52, 6-{Bis-[(cyclohexylmethyl-carbamoyl)-methyl]-amino}-hexanoic acid hydroxyamide]",311 ± 24.7 nM
9,"O=C(CCCCCN(CC(=O)NCc1ccccc1)CC(=O)NCc1ccccc1)NO [Compound 48, 6-[Bis-(benzylcarbamoyl-methyl)-amino]-hexanoic acid hydroxyamide]",187 ± 10.6 nM
10,"O=C(CCCCCN(CC(=O)NC1CCCCC1)CC(=O)NC1CCCCC1)NO [Compound 50, 6-(Bis-cyclohexylcarbamoylmethyl-amino)-hexanoic acid hydroxyamide]",267 ± 32.5 nM
11,"O=C(CCCCCN(CC(=O)N1CCC(Cc2ccccc2)CC1)CC(=O)N1CCC(Cc2ccccc2)CC1)NO [Compound 53, 6-{Bis-[2-(4-benzyl-piperidin-1-yl)-2-oxo-ethyl]-amino}-hexanoic acid hydroxyamide]",873 ± 57.9 nM

# Same assay, conditions: Table 3, compounds of formula IV; epitope-tagged human HDAC1 complex, substrate at Km; mean ± spread (N); read-out: HDAC Inhibition (IC50) nm
row,Compound,IC50
1,O=C(CCCCCCC(=O)N(Cc1ccccc1)Cc1ccccc1)NO [Compound 62],462 ± 51.6 nM
2,O=C(CCC(=O)N1CCN(c2cccc(Cl)c2)CC1)NO [Compound 69],13000 nM
3,"O=C(CCCC(=O)N1CCN(c2cccc(Cl)c2)CC1)NO [Compound 72, 5-[4-(3-Chloro-phenyl)-piperazin-1-yl]-5-oxo-pentanoic acid hydroxyamide]",474 ± 36 nM
4,O=C(CCCCCCCCC(=O)N(CCc1ccccc1)Cc1ccccc1)NO [Compound 64],434 ± 2.8 nM
5,O=C(CCCCCCC(=O)N(CCc1ccccc1)Cc1ccccc1)NO [Compound 63],591 ± 46.6 nM
6,O=C(CCCCCCC(=O)N(CCc1c[nH]c2ccccc12)Cc1ccc(Br)cc1)NO [Compound 60],387 ± 80.6 nM
7,O=C(CCCCC(=O)N(Cc1ccccc1)Cc1ccccc1)NO [Compound 58],899 ± 243 nM
8,O=C(CCC(=O)N1CCN(c2ccccc2Cl)CC1)NO [Compound 68],73300 nM
9,"O=C(CCCCC(=O)N1CCN(c2ccc(Cl)cc2)CC1)NO [Compound 76, 6-[4-(4-Chloro-phenyl)-piperazin-1-yl]-6-oxo-hexanoic acid hydroxyamide]",475 ± 9.1 nM
10,CC(=O)c1ccc(N2CCN(C(=O)CCC(=O)NO)CC2)cc1 [Compound 70],24000 nM
11,O=C(CCC(=O)N1CCN(c2ccc(Cl)cc2)CC1)NO [Compound 67],16200 nM
12,"O=C(CCCC(=O)N1CCN(c2ccc(Cl)cc2)CC1)NO [Compound 73, 5-[4-(4-Chloro-phenyl)-piperazin-1-yl]-5-oxo-pentanoic acid hydroxyamide]",988 ± 93.3 nM
13,"O=C(CCCCC(=O)N1CCN(c2ccccc2)CC1)NO [Compound 74, 6-Oxo-6-(4-phenyl-piperazin-1-yl)-hexanoic acid hydroxyamide]",1350 ± 106 nM
14,O=C(CCCCCCC(=O)N1CCN(C(=O)OCc2ccccc2)CC1)NO [Compound 65],301 ± 21.2 nM
15,O=C(CCCCC(=O)N(CCc1ccccc1)Cc1ccccc1)NO [Compound 59],2590 ± 807 nM
16,"O=C(CCCCCCCCC(=O)N1CCN(c2ccc(Cl)cc2)CC1)NO [Compound 79, 10-[4-(4-Chloro-phenyl)-piperazin-1-yl]-10-oxo-decanoic acid hydroxyamide]",169 ± 30.4 nM
17,8-[4-(4-Chloro-phenyl)-piperazin-1-yl]-8-oxo-octanoic acid hydroxyamide [Compound 78],36.5 ± 4.9 nM
18,"O=C(CCCCCCC(=O)N1CCN(c2cccc(Cl)c2)CC1)NO [Compound 77, 8-[4-(3-Chloro-phenyl)-piperazin-1-yl]-8-oxo-octanoic acid hydroxyamide]",39 ± 2.8 nM
19,"O=C(CCCCC(=O)N1CCN(c2cccc(Cl)c2)CC1)NO [Compound 75, 6-[4-(3-Chloro-phenyl)-piperazin-1-yl]-6-oxo-hexanoic acid hydroxyamide]",621 ± 94 nM
20,"O=C(CCCC(=O)N1CCN(c2ccccc2)CC1)NO [Compound 71, 5-Oxo-5-(4-phenyl-piperazin-1-yl)-pentanoic acid hydroxyamide]",1220 ± 31.1 nM

# Same assay, conditions: Table 4, compounds of formula V; epitope-tagged human HDAC1 complex, substrate at Km; mean ± spread (N); read-out: HDAC Inhibition (IC50) nm
row,Compound,IC50
1,O=C(CCCCCCN(Cc1ccccc1)Cc1ccccc1)NO [Compound 80],374 ± 39.5 nM
2,O=C(CCCCCCCN(CCc1c[nH]c2ccccc12)Cc1ccc(Br)cc1)NO [Compound 83],204 ± 58.6 nM
3,O=C(CCCCCCN(CCc1c[nH]c2ccccc12)Cc1ccc(Br)cc1)NO [Compound 82],188 ± 72.8 nM

# Same assay, conditions: Table 5, other HDAC inhibitors of formula I; epitope-tagged human HDAC1 complex, substrate at Km; mean ± spread (N); read-out: HDAC Inhibition (IC50) nm
row,Compound,IC50
1,CN(CCCCCC(=O)NO)CC(=O)NCCc1ccccc1 [Compound 86],247 ± 33.2 nM
2,CN(CCCCCC(=O)NO)CC(=O)NCc1ccccc1 [Compound 85],571 ± 52.3 nM
